According to patent US8071552B2, “Peptides and peptidomimetics binding to CD23” (Universite Bordeaux 2, priority 2004, dated 2011):
“And” between values parts separate entries of the source, which are not always exact repeats. Equal entries are not always repeated. No end group written: not given here.

What was measured:
[1] = test system: Monocyte-derived macrophages (CD23+); assay: Quantification of inflammatory response: nitrites (Greiss) from CD23-activated human macrophages, % inhibition relative to controls; format: cell-based; settings: human macrophages activated through CD23
Text: Monocytes are isolated from normal human peripheral blood. Samples are collected from normal volunteers (20-50 years) by blood bank. They are all tested for the absence of HIV or HBV contaminations prior to use. Human normal mononuclear cells are obtained by Ficoll (Histopaque, Sigma) gradient separation of peripheral blood leukocytes. Monocytes are separated from lymphocytes by adherence to plastic dishes coated with fetal calf serum (FCS) as described (Vouldoukis I., et al., Proc. Natl. Acad. Sci. USA., 92: 7804-7808 1995). Following this procedure, >90% of cells express CD14 antigen and display cytochemical characteristics of monocytes. The cells are then incubated in DMEM supplemented with L-non-essential amino acids, sodium pyruvate, glutamine, penicillin, streptomycin, and 10% FCS (all from Gibco Laboratories, Grand Island, N.Y.). Above culture medium, chemicals, and FCS are tested for the absence of direct activation effect on human monocytes (CD23 expression and TNF-α production as activation markers). Following 24-48 hr adherence to culture flasks, these cells differentiate into macrophage-like cells displaying non-specific esterase activity that is inhibited by sodium fluoride.
Normal human donor-derived adherent cells have low if any surface CD23 expression and are designated in the present work as macrophages. CD23 expression is obtained following cell incubation with recombinant human interleukin 4 ([…]). […] Tissue-derived macrophages are mostly CD23^+.
Monocyte-derived macrophages (CD23^+) are activated through the cross-linking of their CD23 surface molecules by appropriate MoAb (20 μg/ml, clone 135, IgG1κ isotype) or by human IgE/anti-IgE complexes (IgE, Stallergene, Paris, France; goat anti-human-IgE, Nordic Immunology, Tilburg, The Netherlands). This activation pathway promotes the activation of iNOS mRNA transcription and the generation, by macrophages, of various inflammatory mediators such as nitric oxide (NO), TNF-α, reactive oxygen radicals, IL-1, and IL-6 (for, a review see: Dugas B, et al., Immunol Today, 16:574-580(1995)).
Following 1-3 day incubation at 37° C., 5% CO2 in humid atmosphere, macrophages are analyzed for their inflammatory response as following:
48-96 hr incubation: Collection of supernatants for the detection of cytokines and nitrites. Nitrites are quantified by Greiss method (Davies et al., Methods in Molecular Biology, 225:305-320, 2003) while IL-1, IL-6 and TNF-α: were quantified using commercial ELISA kits. The following antibodies and reagents were utilized:
Following quantitation of nitrites, a percentage inhibition relative to controls is calculated.

[2] = test system: CD23+ cells; assay: Inhibition of TNF-α generation from activated macrophages (ELISA); format: cell-based, human
Description: (§1) For inflammatory functions, cells are pre-incubated with CD23-counterstructures during 4 hours prior to their incubation with CD23-MoAb or IgE/anti-IgE complexes. Cell supernatants are collected 2-4 days later and tested for their contents in various mediators.
In addition to NO, the effect of peptides on the production of TNF-α, a well-documented effector factor during inflammatory diseases, is also tested.
CD23^+ cells are incubated in the presence or the absence of an inhibitory peptide (p30A) for 4 hours. CD23-MoAb or IgE/anti-IgE immune complexes are added. Following 3-5 day incubation, cell supernatants are harvested and the level of TNF-α, quantified by specific ELISA.

[3] = test system: macrophages derived from synovial fluid of patients with Rheumatoid Arthritis; assay: NO generation by macrophages derived from synovial fluid of patients with Rheumatoid Arthritis; format: cell-based, human; settings: RA synovial fluid macrophages
Description: CD23^+ cells are incubated in the presence or the absence of an inhibitory peptide […]) for 4 hours. CD23-MoAb or IgE/anti-IgE immune complexes are added. Following 3-5 day incubation, cell supernatants are harvested and the level of nitrites quantified by Greiss reaction (Davies et al., Methods in Molecular Biology, 225:305-320, 2003). The effect of CD23-Peptide or a negative control on inflammatory functions of macrophages derived from synovial fluid of patients with Rheumatoid Arthritis is also investigated.

[4] = test system: arthritic rats; assay: Treatment of arthritic rats (Mycobacterium butyricum-induced arthritis); format: in vivo, Lewis rats
Description: On day 0, 6-week old female Lewis rats weighing 145-155 g are injected subcutaneously with an arthritis-inducing emulsion. The rats are injected with 300 μl of the emulsion which contains: • 2 mg/rat heat-inactivated Mycobacterium butyricum diluted into; • 240 μl of Vaseline; • 30 μl of Tween-20; and • 30 μl of PBS.
The immunization step is repeated on day 7. The rats present arthritis signs by days 15 have to 21. Arthritic signs are assigned a clinical score (1-4). By day 40, the clinical scores increase from 1 to 3 or 4. Slower weight progression is also observed in immunized rats (FIG. 1a).
However, subcutaneous injection of 5 mg of p30A after the appearance of clinical signs results in complete remission of arthritic symptoms for 50% of the rats (FIG. 1b) as well as decreased clinical scores in 25% of the remaining rats.

[5] = test system: macrophages derived from peripheral blood or the synovial fluid of patients with Rheumatoid Arthritis; assay: TNF-α generation by macrophages from peripheral blood or synovial fluid of patients with Rheumatoid Arthritis; format: cell-based, human; settings: for level of TNF-α: p30A + CD23-Ab
Description: CD23^+ cells are incubated in the presence or the absence of an inhibitory peptide (p30A) for 4 hours. CD23-MoAb or IgE/anti-IgE immune complexes are added. Following 3-5 day incubation, cell supernatants are harvested and the level of TNF-α, quantified by specific ELISA. The effect of CD23-Peptide or a negative control on inflammatory functions of macrophages derived from peripheral blood or the synovial fluid of patients with Rheumatoid Arthritis is also investigated.

[6] = test system: CD23+ cells; assay: Inhibition of NO generation from activated macrophages (nitrites by Greiss reaction); format: cell-based, human; settings: peptide 4 hours, then IgE/anti-IgE; 3-5 day incubation
Description: as §1
Inflammatory responses of human macrophages almost correlated with in vivo generation of nitric oxide by these cells. We use this inflammatory mediator as a marker of cell activation.
CD23^+ cells are incubated in the presence or the absence of an inhibitory peptide (p30A) for 4 hours. CD23-MoAb or IgE/anti-IgE immune complexes are added. Following 3-5 day incubation, cell supernatants are harvested and the level of nitrites quantified by Greiss reaction (Davies et al., Methods in Molecular Biology, 225:305-320, 2003).

[7] = test system: rat peritoneal macrophages and rat peripheral macrophages; assay: NO production from rat peritoneal and peripheral macrophages induced by IgE/DNP-BSA; format: cell-based; settings: peptide 4 hours, 3-5 day incubation
Description: NO production from rat peritoneal macrophages and rat peripheral macrophages is also determined. Peritoneal macrophages are highly CD23^+ and produce much higher quantities of pro-inflammatory mediators compared to peripheral blood-derived cells. CD23^+ cells are incubated in the presence or the absence of an inhibitory peptide (p30A) for 4 hours. IgE/DNP-BSA is added to induce CD23 cross-linking. L-NIL is a specific inhibitor of NOS-II. Pep− is a negative control peptide. Following 3-5 day incubation, cell supernatants are harvested and the level of nitrites quantified by Greiss reaction (Davies et al., Methods in Molecular Biology, 225:305-320, 2003).

[8] = test system: Adjuvant arthritis (AA) rats; assay: In vivo prevention and treatment of adjuvant arthritis in rats with p30A; parameters: species or system Lewis rats
Description: Each group of animals comprises eight rats. Female Lewis rats (Janvier, Le Genest St Isle, France) are housed under standard laboratory conditions and the animals are allowed free access to food and water. The temperature is kept at 22±2° C. and a 12-hour light/dark schedule is maintained. All animal procedures are performed in strict accordance with the guidelines issued by the European Economic Community “86/609”. Adjuvant arthritis (AA) is induced in six weeks-old animals by subcutaneous injection at the base of the tail of 300 μl (1.8 mg) of inactivated Mycobacterium butyricum (Difco Laboratories, Detroit, Mich.) diluted in emulsion of 8 ml Vaseline, 1 ml polysorbate 80, and 1 ml PBS (Phosphate Buffer Saline, BioWhittaker, Walkersville, Md.). Rats are boosted one week later with the same dose of antigen and observed for up to 50 days following immunization for clinical symptoms of arthritis. Evaluation of AA severity is performed by two independent observers with no knowledge of the treatment protocol. The severity of AA in each paw is quantified daily by a clinical score measurement from 0 to 2 as following: no signs of inflammation (0); swelling alone (>2 fold paw diameter) (0.5) or swelling/immobility (1.0) of one paw; swelling (1,5) or swelling/immobility (2,0) of two paws. Weight evolution of the animals is measured daily. Rats are injected with peptides or peptidomimetics (dissolved in 0.1% DMSO) I.C. every two days (day 0, 2, 4, 6, and 8) during the initiation of inflammation (preventive) or following the appearance of the inflammatory signs. As negative control, rats are injected with saline.
Clinical scores are determined as described above, and the cumulative clinical score is plotted against days post-immunization (FIGS. 2, 3, and 4).
In each of FIGS. 2, 3, and 4, arrows below the x-axis indicate the days on which IC injections were administered.

[9] = subcutaneous injection of 5 mg after the appearance of clinical signs
[10] = Peripheral Macrophages of RA patients

## F H E N W beta A S [Compound 328]
[1]
  % Inhibition (nitrites relative to controls; inhibition of iNOS production): 26%

## Ac N W CO2H [Compound 411]
[1]
  % Inhibition (nitrites relative to controls; inhibition of iNOS production): 84%

## Ac w n CO2H [Compound 491]
[1]
  % Inhibition (nitrites relative to controls; inhibition of iNOS production): 94%

## NH2 G[allyl-] N W G[allyl-] [Compound 489]
[1]
  % Inhibition (nitrites relative to controls; inhibition of iNOS production): 62%

## FHENWPS [p30A]
[2]; p30A + CD23-Ab versus CD23-Ab
  % Inhibition of TNF-α: 47% and 54%
[2]; peptide 4 hours, then CD23-Ab, 3-5 day incubation
  level of TNF-α: 77 pg TNF-α/ml and 89 pg TNF-α/ml
[3]; peptide + CD23-Ab
  level of nitrites [NO2-]: 7.9 µM and 9.5 µM
[3]; peptide alone (no CD23-Ab)
  level of nitrites [NO2-]: 8.5 µM and 10.3 µM
[4]; intraperitoneal injection or intravenous treatment
  remission of the arthritic condition: do not induce remission
[4]; subcutaneous injection of 5 mg
  remission of arthritis (FIG. 1b): results in remission
[4]; [9]
  complete remission of arthritic symptoms: 50 % of the rats
  decreased clinical scores: 25 % of the remaining rats
[4]; unique injection (intraperitoneal or subcutaneous) at day 0
  arthritis appearance: no affect on arthritis appearance
[5]; [10]
  % Inhibition of TNF-α: 73%
  level of TNF-α: 40 pg TNF-α/ml
[5]; SF Macrophages of RA patients
  % Inhibition of TNF-α: 41%
  level of TNF-α: 140 pg TNF-α/ml
[6]
  level of nitrites [NO2-]: 2.6 µM and 1.4 µM
[7]
  IgE/DNP-BSA-induced NO production by macrophages: inhibits IgE/DNP-BSA-induced NO production
[8]; injections every two days from immunization, two dosage regimes, versus control rats
  cumulative clinical score, preventive treatment (FIG. 2): clearly superior clinical scores compared to control rats
[8]; rats with arthritic symptoms, versus untreated arthritic rats
  weight gain (FIG. 4): produced weight gain
[8]; treated from day of first symptoms, 3 dosage regimes, versus control rats
  cumulative clinical score, therapeutic treatment (FIG. 3): clear therapeutic effect

## H E N W Sar S [Compound 398]
[1]
  % Inhibition (nitrites relative to controls; inhibition of iNOS production): 74%

## Ac n w CO2H [Compound 492]
[1]
  % Inhibition (nitrites relative to controls; inhibition of iNOS production): 77%

## G[allyl-] N W G[allyl-] S [Compound 490]
[1]
  % Inhibition (nitrites relative to controls; inhibition of iNOS production): 81%

## H E N W S [Compound 437]
[1]
  % Inhibition (nitrites relative to controls; inhibition of iNOS production): 56%

## Ac N W BetaA CO2H [Compound 410]
[1]
  % Inhibition (nitrites relative to controls; inhibition of iNOS production): 61%
